Data as given in ChEMBL document CHEMBL5104149, “Monoterpene substituted thiazolidin-4-ones as novel TDP1 inhibitors: Synthesis, biological evaluation and docking” (Bioorg Med Chem Lett, 2022).
Active and inactive are the calls of the source. The calls are words filed in the database; no cut-off is given here.

Experiments:
[1] = target: Tyrosyl-DNA phosphodiesterase 1 (Homo sapiens, UniProt Q9NUW8); assay: Inhibition of recombinant human TDP1 measured by real-time oligonucleotide biosensor assay
Tyrosyl-DNA phosphodiesterase 1, sequence (Q9NUW8 whole entry): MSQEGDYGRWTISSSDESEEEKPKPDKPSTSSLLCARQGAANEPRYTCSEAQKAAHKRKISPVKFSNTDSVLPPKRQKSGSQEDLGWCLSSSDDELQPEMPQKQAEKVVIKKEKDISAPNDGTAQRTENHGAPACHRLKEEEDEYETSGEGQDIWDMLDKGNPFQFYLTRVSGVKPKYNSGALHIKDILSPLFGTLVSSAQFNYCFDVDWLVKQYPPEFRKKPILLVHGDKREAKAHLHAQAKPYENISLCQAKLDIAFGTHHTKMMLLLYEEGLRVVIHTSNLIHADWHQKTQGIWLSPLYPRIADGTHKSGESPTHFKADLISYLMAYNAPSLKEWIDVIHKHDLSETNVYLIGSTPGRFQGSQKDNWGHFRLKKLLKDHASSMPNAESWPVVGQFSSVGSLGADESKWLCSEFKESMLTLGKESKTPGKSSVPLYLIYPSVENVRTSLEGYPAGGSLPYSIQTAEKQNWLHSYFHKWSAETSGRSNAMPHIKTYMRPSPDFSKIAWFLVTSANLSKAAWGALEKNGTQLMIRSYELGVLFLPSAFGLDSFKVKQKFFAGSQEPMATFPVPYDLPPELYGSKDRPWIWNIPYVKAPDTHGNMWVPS

[2] = Cytotoxicity against human HeLa cells; format: toxicity, cell-based
[3] = Cytotoxicity against human HEK293-A cells; format: toxicity, cell-based
[4] = test system: HeLa; assay: Cytotoxicity against human HeLa cells at 10 uM in presence of 2 to 16 uM topotecan; format: functional, cell-based
[5] = test system: HeLa; assay: Synergistic cytotoxicity against human HeLa cells assessed as combination index at 5 uM in presence of 5 uM topotecan; format: functional
[6] = test system: HeLa; assay: Synergistic cytotoxicity against human HeLa cells assessed as combination index at 20 uM in presence of 5 uM topotecan; format: functional

Row | IC50 [1] [µM] | Compound | CC50 [2] [µM] | CC50 [3] [µM] | Activity [4] | CI [5] | CI [6]
1 | 1.2 | CC(C)CCCC(C)CCOc1ccc(C2SCC(=O)N2Cc2ccccc2)cc1 (stereo not drawn) | 66 | > 100 | Active | 0.51 | 0.29
2 | 1.6 | CC1(C)C2CC=C(COc3ccc(C4SCC(=O)N4Cc4ccccc4)cc3)C1C2 (stereo not drawn) | 74 | 51 | Active | – | 0.21
3 | > 100 | COc1ccc(C2SCC(=O)N2Cc2ccccc2)cc1 (stereo not drawn) | – | – | – | – | –
4 | 2.9 | CC(C)=CCC/C(C)=C/COc1ccc(C2SCC(=O)N2Cc2ccccc2)cc1 (stereo not drawn) | > 100 | > 100 | Active | – | 0.13
5 | > 100 | O=C1CSC(c2ccccc2)N1Cc1ccccc1 (stereo not drawn) | – | – | – | – | –
6 | 1.2 | CC1=CC[C@@H](CCOc2ccc(C3SCC(=O)N3Cc3ccccc3)cc2)C1(C)C (stereo partly drawn) | 79 | 90 | Active | 0.25 | 0.16

Continued, compound first:

Row | Compound | IC50 [1] [µM] | CC50 [2] [µM] | CC50 [3] [µM] | Activity [4] | CI [5] | CI [6]
7 | CC1(C)C2CC=C(CCOc3ccc(C4SCC(=O)N4Cc4ccccc4)cc3)C1C2 (stereo not drawn) | 2.1 | > 100 | > 100 | Active | 0.32 | 0.21
8 | CC(=O)C1=C(O)C=C2Oc3c(-c4csc(N/N=C/CC(C)CCC=C(C)C)n4)c(O)c(C)c(O)c3[C@@]2(C)C1=O (stereo partly drawn) | 0.016 | – | – | – | – | –
9 | CC(C)=CCCC(C)CCOc1ccc(C2SCC(=O)N2Cc2ccccc2)cc1 (stereo not drawn) | > 100 | – | – | – | – | –
10 | CC(C)CCCC(C)CC1SCC(=O)N1Cc1ccccc1 (stereo not drawn) | > 100 | – | – | – | – | –
11 | CC1=CC[C@@H](CC2SCC(=O)N2Cc2ccccc2)C1(C)C (stereo partly drawn) | > 100 | – | – | – | – | –
12 | CC(C)=CCCC(C)CC1SCC(=O)N1Cc1ccccc1 (stereo not drawn) | > 100 | – | – | – | – | –
13 | CC1(C)C2CC=C(C3SCC(=O)N3Cc3ccccc3)C1C2 (stereo not drawn) | > 100 | – | – | – | – | –
14 | CC1(C)C2CC=C(CC3SCC(=O)N3Cc3ccccc3)C1C2 (stereo not drawn) | > 100 | – | – | – | – | –
15 | COc1cnc2c(c1)C(=O)c1c-2n(CCCNC2=NCCS2)c(=O)c2cc([N+](=O)[O-])ccc12 | 12 | – | – | – | – | –
